This passage reports IC50 and IC90 results from ChEMBL document CHEMBL4483862, “Open-source discovery of chemical leads for next-generation chemoprotective antimalarials” (2018).

This experiment relates to Plasmodium berghei. Description: Luciferase/luciferin-expressing antifolate-resistant parasites were used to infect a culture of HepG2 cells that were pre-incubated with compounds. Infected hepatocytes emit light due to the luciferase reaction. Assay results are presented as the percent inhibition of light emission compared to control. […]. The experiment is classed as functional. Particulars: sporozoite; for IC90: read-out: LUCIFERASE INFECTION ASSAY - IC90.

Where [1] appears, read: read-out: LUCIFERASE INFECTION ASSAY - IC50.

Some results are limits rather than exact numbers.

By IC50 is commonly meant the concentration needed to halve the response being measured. By IC90 is commonly meant the concentration at which the effect reaches the 90% level.

`Cc1cc(C)c(NC(=O)NCCCOCC(C)C)c(Cl)c1`: the concentration for an effect of 90% (IC90) was greater than 10 µM. Under setting [1], the IC50 was greater than 10 µM.

For the compound `Cc1cc(N)c(N)cc1C`, the concentration for an effect of 90% (IC90) came to 6.18 µM. Further, where the note is “PBLUC_HILL_SLOPE 0.927, PBLUC_R_SQUARED 0.706, read-out: LUCIFERASE INFECTION ASSAY - IC50”, the IC50 is 0.577 µM.

On to `Cn1c(N)c(C(=O)COC(=O)c2c3c(nc4ccccc24)CCCCC3)c(=O)n(C)c1=O`, for which the concentration for an effect of 90% (IC90) is greater than 10 µM. In addition, the IC50 under setting [1] was 8.99 µM.

Consider `FC(F)(F)c1cnc(N/N=C/c2cccs2)c(Cl)c1`, for which the IC90 was found to be 10.6 µM. Also, the half-maximal inhibitory concentration (IC50) (HEPG2TOX_HILL_SLOPE 9.1, HEPG2TOX_R_SQUARED 0.955, PBLUC_HILL_SLOPE 28.7, PBLUC_R_SQUARED 0.321, read-out: LUCIFERASE INFECTION ASSAY - IC50) stood at 9.82 µM.

With `CC1Cc2cc(S(N)(=O)=O)ccc2N1CCCOc1ccc(F)cc1` (stereo not drawn), the IC90 is greater than 10 µM. Besides, the concentration for half-maximal inhibition (IC50) (HEPG2TOX_HILL_SLOPE 3.41, HEPG2TOX_R_SQUARED 0.506, PBLUC_HILL_SLOPE 2.13, PBLUC_R_SQUARED 0.616, read-out: LUCIFERASE INFECTION ASSAY - IC50) was determined as 6.18 µM.

As to `CC(C)c1cccc(Nc2nnc(C(O)c3ccccc3Cl)s2)c1` (stereo not drawn), the concentration for an effect of 90% (IC90) was greater than 10 µM. Under setting [1], the 50% inhibitory concentration (IC50) is greater than 10 µM.

Turning to `CCCNc1nc(-c2ccc(OC)cc2)c(-c2ccc(OC)cc2)s1`, the 90% effect concentration (IC90) is greater than 10 µM. Besides, the half-inhibitory concentration (IC50) (PBLUC_HILL_SLOPE 15.7, PBLUC_R_SQUARED 0.0413, read-out: LUCIFERASE INFECTION ASSAY - IC50) was 9.99 µM.

For the compound `CCCN1CCc2nc(NCc3cccc(Oc4ccccc4)c3)ncc2C1`, the IC90 is greater than 8.81 µM. In addition, for the setting “PBLUC_HILL_SLOPE 1.46, PBLUC_R_SQUARED 0.3, read-out: LUCIFERASE INFECTION ASSAY - IC50”, the IC50 was 3.92 µM.

Turning to `COc1ccc(-c2nc3ccnc(NCc4ccc(Cl)cc4)c3[nH]2)cc1`, the IC90 was found to be 4.74 µM. The IC50 (PBLUC_HILL_SLOPE 2.99, PBLUC_R_SQUARED 0.272, read-out: LUCIFERASE INFECTION ASSAY - IC50) came out at 2.27 µM.

For `O=C(OCc1cc(=O)oc2ccc3ccccc3c12)c1ccccc1-c1ccc(C(F)(F)F)cc1`, the IC90 is greater than 10 µM. Besides, under “FFLUC_HILL_SLOPE 17.5, FFLUC_R_SQUARED 0.62, read-out: LUCIFERASE INFECTION ASSAY - IC50”, the concentration for half-maximal inhibition (IC50) is greater than 10 µM.

With `CC(Nc1ccc2c(c1)CCC2)C(=O)Nc1sccc1C(N)=O` (stereo not drawn), the IC90 was 1.74 µM. For the same compound, under “HEPG2TOX_HILL_SLOPE 0.241, HEPG2TOX_R_SQUARED 0.874, PBLUC_HILL_SLOPE 11.9, PBLUC_R_SQUARED 0.588, read-out: LUCIFERASE INFECTION ASSAY - IC50”, the IC50 turned out to be 1.45 µM.

Take `NC(CCc1ccccc1)c1csc(Nc2ccc(C(=O)NCc3ccco3)cn2)n1` (stereo not drawn): the IC90 came out at 7.53 µM. Also, the half-inhibitory concentration (IC50) (HEPG2TOX_HILL_SLOPE 15.2, HEPG2TOX_R_SQUARED 0.624, PBLUC_HILL_SLOPE 17, PBLUC_R_SQUARED 0.625, read-out: LUCIFERASE INFECTION ASSAY - IC50) was 6.62 µM.

As for `CCOC(=O)c1c(C)[nH]c(C(=O)CSc2nccn2C)c1C`, the IC90 worked out at 0.204 µM. For the same compound, under “FFLUC_HILL_SLOPE 13.6, FFLUC_R_SQUARED 0.648, PBLUC_HILL_SLOPE 159, PBLUC_R_SQUARED 0.464, read-out: LUCIFERASE INFECTION ASSAY - IC50”, the IC50 was determined as 0.201 µM.

For the compound `O=C(Nc1cccc(Cl)c1)C1=COC2=NC(=O)N(Cc3cccc(Cl)c3)CCN12`, the concentration for an effect of 90% (IC90) is greater than 10 µM. Under “HEPG2TOX_HILL_SLOPE 3.25, HEPG2TOX_R_SQUARED 0.784, PBLUC_HILL_SLOPE 3.78, PBLUC_R_SQUARED 0.178, read-out: LUCIFERASE INFECTION ASSAY - IC50”, the IC50 amounted to 6.88 µM.

On to `CC(=O)Nc1ccc(Nc2cc3c(cn2)nc(-c2ccccc2)n3C)cc1`, for which the IC90 was found to be 3.77 µM. Besides, where the note is “HEPG2TOX_HILL_SLOPE 4.43, HEPG2TOX_R_SQUARED 0.848, PBLUC_HILL_SLOPE 16.8, PBLUC_R_SQUARED 0.556, read-out: LUCIFERASE INFECTION ASSAY - IC50”, the IC50 was 3.31 µM.

As to `Cc1ccc(O)c(C(=O)NCCC(C)C)c1`, the 90% effect concentration (IC90) was greater than 10 µM. Where the note is “HEPG2TOX_HILL_SLOPE 0.253, HEPG2TOX_R_SQUARED 0.657, PBLUC_HILL_SLOPE 0.85, PBLUC_R_SQUARED 0.659, read-out: LUCIFERASE INFECTION ASSAY - IC50”, the half-inhibitory concentration (IC50) was found to be 2.35 µM.

Turning to `O=C(Nc1ccccc1)c1cc(Nc2ccc(O)cc2)ncn1`, the concentration for an effect of 90% (IC90) was greater than 10.8 µM. For the setting “FFLUC_HILL_SLOPE 0.974, FFLUC_R_SQUARED 0.921, PBLUC_HILL_SLOPE 1.57, PBLUC_R_SQUARED 0.726, read-out: LUCIFERASE INFECTION ASSAY - IC50”, the half-maximal inhibitory concentration (IC50) came to 5.2 µM.

As for `COc1ccc(-c2cnc3cnc(-c4cccc(C(=O)NCCO)c4)cn23)cc1`, the 90% effect concentration (IC90) stood at 8.22 µM. Also, the IC50 (PBLUC_HILL_SLOPE 19.3, PBLUC_R_SQUARED 0.197, read-out: LUCIFERASE INFECTION ASSAY - IC50) was 7.33 µM.

With `CCCC1(CCC)NC(=O)N(CC(=O)/N=c2\sc3ccccc3n2C)C1=O`, the IC90 is greater than 10 µM. Under “HEPG2TOX_HILL_SLOPE 1.17, HEPG2TOX_R_SQUARED 0.854, PBLUC_HILL_SLOPE 1.78, PBLUC_R_SQUARED 0.281, read-out: LUCIFERASE INFECTION ASSAY - IC50”, the IC50 came out at 4.54 µM.

On to `COc1ccc(CNc2ccc3ncc(-c4ccc(OC)c(OC)c4)n3n2)cc1`, for which the 90% effect concentration (IC90) amounted to 4.78 µM. Moreover, the concentration for half-maximal inhibition (IC50) (HEPG2TOX_HILL_SLOPE 2.6, HEPG2TOX_R_SQUARED 0.69, PBLUC_HILL_SLOPE 12.3, PBLUC_R_SQUARED 0.459, read-out: LUCIFERASE INFECTION ASSAY - IC50) turned out to be 4 µM.

Regarding `N#Cc1ccnc(N2CCN(c3nc(CSc4ccccc4)nc4sc5c(c34)CCC5)CC2)c1`, the IC90 was greater than 10 µM. Moreover, the IC50 under setting [1] is greater than 10 µM.

As for `COc1ccc(CC(N)c2csc(NC(=O)C(c3ccccc3)c3ccccc3)n2)cc1` (stereo not drawn), the IC90 worked out at 5.8 µM. In addition, the concentration for half-maximal inhibition (IC50) (HEPG2TOX_HILL_SLOPE 15.4, HEPG2TOX_R_SQUARED 0.86, PBLUC_HILL_SLOPE 4.59, PBLUC_R_SQUARED 0.756, read-out: LUCIFERASE INFECTION ASSAY - IC50) was 3.59 µM.

In the case of `COc1ccc(S(=O)(=O)N2CCN(c3cc(C)c4ccccc4n3)CC2)cc1`, the 90% effect concentration (IC90) was greater than 8.3 µM. Also, under setting [1], the half-inhibitory concentration (IC50) is greater than 8.3 µM.

Regarding `Cc1ccc(-c2csc(NC(=O)CCn3ccnc3)n2)c(C)c1`, the IC90 was greater than 10 µM. For the same compound, the IC50 under setting [1] was greater than 10 µM.

In the case of `COc1ccc(N2CCN(CCCNS(=O)(=O)c3ccc(Cl)cc3C(F)(F)F)CC2)cc1`, the IC90 was greater than 10 µM. Where the note is “PBLUC_HILL_SLOPE 0.0792, 17.3, PBLUC_R_SQUARED 0.0344, 0.317, read-out: LUCIFERASE INFECTION ASSAY - IC50”, the half-maximal inhibitory concentration (IC50) was 9.67 µM.

For the compound `O=C(COC(=O)c1cc(-c2ccccc2)c(N2CCOCC2)s1)c1ccc2c(c1)OCCO2`, the IC90 is greater than 10 µM. In addition, the IC50 under setting [1] is greater than 10 µM.

Regarding `Cc1cc(=O)nc(N/N=C/c2c(C)nn(-c3cccc(C(F)(F)F)c3)c2Cl)[nH]1`, the concentration for an effect of 90% (IC90) stood at 8.03 µM. For the same compound, where the note is “HEPG2TOX_HILL_SLOPE 9.49, HEPG2TOX_R_SQUARED 0.952, PBLUC_HILL_SLOPE 2.17, PBLUC_R_SQUARED 0.422, read-out: LUCIFERASE INFECTION ASSAY - IC50”, the half-maximal inhibitory concentration (IC50) is 2.91 µM.

Take `Cn1cc(-c2cnc3cnc(-c4cccc(Cl)c4)cn23)cn1`: the IC90 is greater than 10.7 µM. Besides, the IC50 under setting [1] was greater than 10.7 µM.

Turning to `COc1ccc(/C=C2\Oc3cc(O)cc(C)c3C2=O)c(OC)c1`, the concentration for an effect of 90% (IC90) was greater than 10.6 µM. The half-inhibitory concentration (IC50) (HEPG2TOX_HILL_SLOPE 7.92, HEPG2TOX_R_SQUARED 0.287, PBLUC_HILL_SLOPE 2.15, PBLUC_R_SQUARED 0.542, read-out: LUCIFERASE INFECTION ASSAY - IC50) worked out at 6.5 µM.

Take `CC(C)c1ccc(Nc2ncc3c(n2)CCN(C(=O)Nc2ccc(F)c(Cl)c2)C3)cc1`: the IC90 was greater than 7.5 µM. The half-maximal inhibitory concentration (IC50) under setting [1] was greater than 7.5 µM.

Consider `CCOc1cccc(-c2cn3c(-c4ccc(C(=O)N5CCN(C)CC5)cc4)cnc3cn2)c1`, for which the IC90 was found to be 7.28 µM. Besides, the half-maximal inhibitory concentration (IC50) (PBLUC_HILL_SLOPE 18.7, PBLUC_R_SQUARED 0.82, read-out: LUCIFERASE INFECTION ASSAY - IC50) was 6.48 µM.

`CCOC(=O)c1sc(N(NC(=O)c2cc(C(F)(F)F)cc(C(F)(F)F)c2)C(=O)c2cc(C(F)(F)F)cc(C(F)(F)F)c2)c2c1CC(C)(C)CC2=O`: the IC90 was greater than 4.33 µM. The IC50 under setting [1] is greater than 4.33 µM.

On to `N#Cc1ccc(-c2cnc3cnc(-c4cnn(Cc5ccccc5)c4)cn23)cc1`, for which the 90% effect concentration (IC90) is greater than 8.77 µM. Besides, the IC50 (FFLUC_HILL_SLOPE 0.364, FFLUC_R_SQUARED 0.0429, PBLUC_HILL_SLOPE 3.85, PBLUC_R_SQUARED 0.0396, read-out: LUCIFERASE INFECTION ASSAY - IC50) stood at 7.64 µM.

As for `CN(C)Cc1ccc(C(=O)Nc2nc3ccccc3[nH]2)cc1`, the IC90 came out at 0.483 µM.

Take `CC1=C(C(=O)OCc2ccccc2)C(c2ccc(Cl)c([N+](=O)[O-])c2)n2nnnc2N1` (stereo not drawn): the concentration for an effect of 90% (IC90) is greater than 10 µM. For the same compound, the IC50 (HEPG2TOX_HILL_SLOPE 0.964, HEPG2TOX_R_SQUARED 0.562, read-out: LUCIFERASE INFECTION ASSAY - IC50) is greater than 10 µM.

Take `CCOC(=O)c1c(-c2ccccc2)csc1NC(=O)Cn1ncc(Cl)c(Cl)c1=O`: the IC90 amounted to 4.1 µM. Further, the 50% inhibitory concentration (IC50) under setting [1] is 3.35 µM.

For the compound `N#Cc1c(-c2ccccc2)c(-c2ccccc2)n(C2CCCCC2)c1NC(=O)CCN1C(=O)c2ccccc2C1=O`, the IC90 is greater than 10 µM. For the setting “FFLUC_HILL_SLOPE 12.4, FFLUC_R_SQUARED 0.654, read-out: LUCIFERASE INFECTION ASSAY - IC50”, the IC50 was greater than 10 µM.
